Measurements from patent EP0232423A1, “CIRCULATION IMPROVING AGENT” (GRELAN PHARMACEUTICAL CO., LTD., priority 1985, dated 1987).
Structures can show the parent of a compound that is named as a salt. Each block holds one molecule with its values, some of them ahead of it.

Key:
isolated basilar artery [1] = assay: Relaxation of isolated basilar artery contracted by 50 mM KCl; assay type: cell-based, Mongrel dogs; details: Canis lupus familiaris, 50 mM KCl contraction; for inhibition at 1 µM: 10^-6 M; for inhibition at 0.1 µM: 10^-7 M; for inhibition at 0.01 µM: 10^-8 M; for EC50: relaxation of isolated basilar artery, read-out: ED50 (the source's name)
Experimental: (§1) Mongrel dogs of either sex (body weight 10-17 kg) were killed by bleeding under anesthetization with pentobarbital sodium (tradename: Nembutai ® Abbott Co., USA). Thereafter, the basilar and femoral arteries were extracted and attached blood and connective tissues were carefully removed in a dish filled with Krebs bicarbonate solution (composition: NaCl 117.7 mM, KC1 4.7 mM, CaCl2 2.5 mM, MgSo4 1.2 mM, glucose 10 mM, NaHCO3 24.4 mM). Thereafter, ring preparations were made therefrom. This preparation was suspended in a bathing tube of 10 ml filled with Krebs bicarbonate solution aerated with 95 % 02 and 5 % C02.
(§2) Then, samples of basilar and femoral arteries were contracted by application of 50 mM KC1. After confirming that the contraction was sustained, (a) compound (I) (erythro form) lactate, (b) compound (I) (threo form) lactate and (c) ifenprodil; [2-(4-benzyl- piperidino-l-(4-hydroxyphenyl)propane-l-ol] tartrate were, respectively, administered as test compounds and the dose-relaxation response was examined.
(§3) A strain gauge transducer (model SB-lT manufactured by Nihon Koden Co.) was employed for recording of change of tension and isometric contraction was recorded on a recorder (model QPD 53 made by Hitachi Ltd . ) .

isolated femoral artery [2] = assay: Relaxation of isolated femoral artery contracted by 50 mM KCl; assay type: cell-based, Mongrel dogs; details: Canis lupus familiaris, 50 mM KCl contraction; for inhibition at 100 µM: 10^-4 M; for inhibition at 10 µM: 10^-5 M; for inhibition at 1 µM: 10^-6 M; for inhibition at 0.1 µM: 10^-7 M; for EC50: relaxation of isolated femoral artery, read-out: ED50 (the source's name)
Experimental: as §1, §2, §3

ddY male mice [3] = assay: Prolongation of gasping time in complete cerebral ischemic (decapitated) animals; assay type: in vivo; details: for Ratio of time (%): prolongation as compared with the control group; for Duration time of gasping: decapitated after 30 minutes
Experimental: After 30 minutes from administration, the.mice were decapitated and the duration time of gasping was measured. The control group was drug-untreated.

isolated coronary artery = assay: Relaxation of isolated coronary artery; assay type: cell-based, Mongrel dogs; details: Canis lupus familiaris, read-out: ED50 (the source's name)
Experimental: as §1, §2, §3
Experiments were conducted in accordance with the method of Test Example 2 with use of the coronary artery in place of the basilar and femoral arteries. […]

isolated basilar artery [4] = assay: Ca antagonistic action: Ca-induced contraction in K-depolarized basilar artery; assay type: cell-based, Mongrel dogs; details: Canis lupus familiaris, 0.25 h, 50 mM KCl, Ca-free bath, cumulative CaCl2, compound applied 15 minutes before, read-out: pA2 values on Ca-induced contraction in depolarized muscle by K (converted)
Experimental: (§4) The same measurements as in Test Example 2 were carried out using the isolated basilar artery and isolated femoral artery treated in accordance with the method of Test Example 2.
(§5) For examination of the Ca antagonistic action, the depolarization of both isolated arteries was induced with 50 mM KC1 in a bathing solution from which Ca had been removed and then CaCl2 was cumulatively applied thereto. As test compounds, (a) compound (I) (erythro form) lactate and (b) ifenprodil tartrate were applied at 15 minutes before addition of CaCl2.

isolated femoral artery [5] = assay: Ca antagonistic action: Ca-induced contraction in K-depolarized femoral artery; assay type: cell-based, Mongrel dogs; details: Canis lupus familiaris, 0.25 h, 50 mM KCl, Ca-free bath, cumulative CaCl2, compound applied 15 minutes before, read-out: pA2 values on Ca-induced contraction in depolarized muscle by K (converted)
Experimental: as §4, §5

platelets of rabbit = assay: Fluidity of platelet membrane (fluorescence polarization); assay type: cell-based; design: Fluorescence polarization: unit not given here; details: for Fluorescence polarization: fluidity increases as value decreases
Source text: The activity of compound (I) (lactate) and ifenprodil tartrate against the fluidity of platelet membrane was examined according to a known method (Biochimica et Biophysica Acta, vol. 798, page 210, 1984) using platelets of rabbit and using n-butyl alcohol as a positive control.

α1-adrenoceptor = assay: Antagonism of phenylephrine (α1-agonist) contraction in saphenous vein; assay type: cell-based, Mongrel dogs; details: α1 - agonist: phenylephrine; saphenous vein; 15 minutes treatment
Source text: (§6) In this experiment, phenylephrine and clonidine were used as al-agonist and a2-agonist, respectively, and these agonists were cumulatively applied to obtain a dose-response curve.

α2-adrenoceptor = assay: Antagonism of clonidine (α2-agonist) contraction in saphenous vein; assay type: cell-based, Mongrel dogs; details: α2 - agonist: clonidine, non-competitive antagonism, 15 min
Source text: as §6

ddY male mice [6] = assay: Ameliorative activity against damage of cerebral hypoxia (reduced pressure); assay type: in vivo; details: for Time required for stoppage of respiration: 30 minutes before, pressure reduced to 160 mmHg
Experimental: Thirty mg/kg each of compound (I) (lactate) and ifenprodil tartrate and 16 mg/kg of phentolamine, which is an a-adrenoceptor blocker, were intraperitoneally administered to ddY male mice, respectively. […] Time from start of reduction of pressure until stop of respiration in the mice was measured. The control group was drug-untreated.

isolated femoral artery [7] = assay: K-induced 45Ca influx in isolated femoral artery; assay type: cell-based, Mongrel dogs; details: 10^-5 M + 50 mM KCl
Source text: (§7) Using the isolated basilar artery and femoral artery treated in accordance with Test Example 2, the activity of (a) compound (I) (lactate), (b) ifenprodil tartrate and (c) verapamil hydrochloride against ^45Ca influx and ^45Ca uptake were examined by the conventional method (J. Membran. Biol., vol. 59, page 19, 1981).

isolated femoral artery [8] = assay: K-induced 45Ca uptake in isolated femoral artery; assay type: cell-based, Mongrel dogs; details: 50 mM KCl alone 586.0 ± 17.9
Source text: as §7

isolated basilar artery [9] = assay: PGF2α-induced 45Ca uptake in isolated basilar artery; assay type: cell-based, Mongrel dogs; details: 10^-5 M + 10^-5 M PGF2α; PGF2α alone 166.2 ± 6.0
Source text: as §7

ddY male mice [10] = assay: Thromboembolic respiratory depression induced by ADP; assay type: in vivo; details: ADP 40 mg/kg i.v.
Experimental: The degree of formation of platelet thrombi in the pulmonary vessels of mice induced by intravenous administration of ADP can be measured based on the decrease in the respiratory rate. The anti-platelet thrombotic action of test drugs can be evaluated by using this decrease in the respiratory rate as a standard. […] Relative respiratory rate (%) was calculated according to the following formula. [formula] (cf. "Thrombosis Research", Vol. 35, Page 311, 1984)

[11] = pre-incubation 15 min, 50 mM KCl alone 94.6 ± 5.2
[12] = pre-incubation 45 min, 50 mM KCl alone 98.4 ± 6.8

EC50 (isolated basilar artery [1]): 0.16 µM
EC50 (isolated femoral artery [2]): 7.2 µM
Structure (SMILES): C[C@@H]([C@H](O)c1ccc(OCc2ccccc2)cc1)N1CCC(Cc2ccccc2)CC1 (relative stereo) [Compound (I) (erythro form) lactate]
inhibition at 1 µM (isolated basilar artery [1]; mean, n = 4 - 5): 100%
inhibition at 0.1 µM (isolated basilar artery [1]; mean, n = 4 - 5): 39.2%
inhibition at 0.01 µM (isolated basilar artery [1]; mean, n = 4 - 5): 7%
inhibition at 100 µM (isolated femoral artery [2]; mean, n = 4 - 5): 85.8%
inhibition at 10 µM (isolated femoral artery [2]; mean, n = 4 - 5): 59.9%
inhibition at 1 µM (isolated femoral artery [2]; mean, n = 4 - 5): 34.2%
inhibition at 0.1 µM (isolated femoral artery [2]; mean, n = 4 - 5): 1.2%
inhibition at 0.01 µM (isolated femoral artery [2]; 10^-8 M, mean, n = 4 - 5): 0.4%

EC50 (isolated basilar artery [1]): 0.085 µM
EC50 (isolated femoral artery [2]): 51 µM
Structure (SMILES): C[C@@H]([C@@H](O)c1ccc(OCc2ccccc2)cc1)N1CCC(Cc2ccccc2)CC1 (relative stereo) [Compound (I) (threo form) lactate]
inhibition at 10 µM (isolated basilar artery [1]; 10^-5 M, mean, n = 4 - 5): 100%
inhibition at 1 µM (isolated basilar artery [1]; mean, n = 4 - 5): 91.7%
inhibition at 0.1 µM (isolated basilar artery [1]; mean, n = 4 - 5): 72.1%
inhibition at 0.01 µM (isolated basilar artery [1]; mean, n = 4 - 5): 10.8%
inhibition at 100 µM (isolated femoral artery [2]; mean, n = 4 - 5): 62.3%
inhibition at 10 µM (isolated femoral artery [2]; mean, n = 4 - 5): 22.5%
inhibition at 1 µM (isolated femoral artery [2]; mean, n = 4 - 5): 6.8%
inhibition at 0.1 µM (isolated femoral artery [2]; mean, n = 4 - 5): 0%

Structure (SMILES): CC(C)(CO)[C@@H](O)C(=O)NCCCC(=O)O [Calcium hopantenate]
Ratio of time (%) (ddY male mice [3]; 300 mg/kg i.p.): 10.5%
Duration time of gasping (ddY male mice [3]; 300 mg/kg intraperitoneally): 23.1 ± 0.6 s

Structure (SMILES): CC(C(O)c1ccc(OCc2ccccc2)cc1)N1CCC(Cc2ccccc2)CC1 (stereo not drawn) [Compound (I) lactate]
EC50 (isolated coronary artery): 2.2 µM
Kb (isolated basilar artery [4]): 0.0186 µM
Kb (isolated femoral artery [5]): 1.55 µM
effect on fluidity of platelet membrane (platelets of rabbit): an increase in the fluitidy of platelet membrane
pA2 value (α1-adrenoceptor): pA2 = 7.03 ± 0.04
pD2' value (α2-adrenoceptor): pD2' = 4.87^Note 4)
Time required for stoppage of respiration (ddY male mice [6]; 30 mg/kg intraperitoneally): 126.1 ± 12.1 s
Ratio of time (%) (ddY male mice [3]; 3 mg/kg i.p.): 3.8%
Duration time of gasping (ddY male mice [3]; 3 mg/kg intraperitoneally): 21.7 ± 0.4 s
Ratio of time (%) (ddY male mice [3]; 10 mg/kg i.p.): 27.8%
Duration time of gasping (ddY male mice [3]; 10 mg/kg intraperitoneally): 26.7 ± 1.8 s
Ratio of time (%) (ddY male mice [3]; 30 mg/kg i.p.): 116.3%
Duration time of gasping (ddY male mice [3]; 30 mg/kg intraperitoneally): 45.2 ± 3.5 s
K-induced ^45Ca influx in isolated femoral artery (isolated femoral artery [7]; [11]): 106.2 ± 4.1 n mol/g wt. tissue
K-induced ^45Ca influx in isolated femoral artery (isolated femoral artery [7]; [12]): 38.2 ± 2.6 n mol/g wt. tissue
K-induced ^45Ca influx in isolated femoral artery (isolated femoral artery [7]; pre-incubation 135 min): 28.3 ± 1.1 n mol/g wt. tissue
K-induced ^45Ca uptake in isolated femoral artery (isolated femoral artery [8]; 10^-4 M + 50 mM KCl): 378.8 ± 27.9 n mol/g wt. tissue
K-induced ^45Ca uptake in isolated femoral artery (isolated femoral artery [8]; 10^-5 M + 50 mM KCl): 461.4 ± 26.7 n mol/g wt. tissue
K-induced ^45Ca uptake in isolated femoral artery (isolated femoral artery [8]; 10^-6 M + 50 mM KCl): 724.4 ± 32.4 n mol/g wt. tissue
PGF2α-induced ^45Ca uptake in isolated basilar artery (isolated basilar artery [9]): 135.2 ± 12.7 (*) n mol/g wt. tissue

Structure (SMILES): COc1ccc([C@@H]2Sc3ccccc3N(CCN(C)C)C(=O)[C@@H]2OC(C)=O)cc1 [Diltiazem-HCl]
Relative respiratory rate (%) (ddY male mice [10]; 10 mg/kg oral, 1 hr after administration): 56.3 ±8.5 (n=6) %
Relative respiratory rate (%) (ddY male mice [10]; 10 mg/kg oral, 2 hr after administration): 38.3 ±7.3 (n=7) %

Structure (SMILES): OC[C@H]1OC(O)[C@H](O)[C@@H](O)[C@@H]1O (stereo partly drawn) [Glucose]
Ratio of time (%) (ddY male mice [3]; 5.4 g/kg i.p.): 10.5%
Duration time of gasping (ddY male mice [3]; 5.4 g/kg intraperitoneally): 23.1 ± 0.6 s

Structure (SMILES): Cc1ccc(N(CC2=NCCN2)c2cccc(O)c2)cc1 [Phentolamine]
Time required for stoppage of respiration (ddY male mice [6]; 16 mg/kg intraperitoneally): 54.5 ± 2.9 s
effect on survival time (cerebral hypoxia) (ddY male mice [6]; i.p., 30 mg/kg compound (I) and ifenprodil tartrate, 16 mg/kg phentolamine): shortens it

Structure (SMILES): Clc1ccccc1CN1CCc2sccc2C1 [Ticlopidine-HCl]
Relative respiratory rate (%) (ddY male mice [10]; 30 mg/kg oral, 1 hr after administration, Compound (I) = erythro form): 49.3 ±4.3 (n=6) %
Relative respiratory rate (%) (ddY male mice [10]; 30 mg/kg oral, 2 hr after administration, Compound (I) = erythro form): 33.9 ±7.0 (n=7) %
Relative respiratory rate (%) (ddY male mice [10]; 30 mg/kg oral, 3 hr after administration, Compound (I) = erythro form): 37.2 ±10.5 (n=9) %

Structure (SMILES): COc1ccc(CCN(C)CCCC(C#N)(c2ccc(OC)c(OC)c2)C(C)C)cc1OC (stereo not drawn) [Verapamil hydrochloride]
K-induced ^45Ca influx in isolated femoral artery (isolated femoral artery [7]; [11]): 76.7 ± 2.0 n mol/g wt. tissue
K-induced ^45Ca influx in isolated femoral artery (isolated femoral artery [7]; [12]): 29.8 ± 2.8 n mol/g wt. tissue
K-induced ^45Ca influx in isolated femoral artery (isolated femoral artery [7]; pre-incubation 135 min): 64.1 ± 5.0 n mol/g wt. tissue
K-induced ^45Ca uptake in isolated femoral artery (isolated femoral artery [8]; 10^-5 M + 50 mM KCl): 344.7 ± 14.4 n mol/g wt. tissue
PGF2α-induced ^45Ca uptake in isolated basilar artery (isolated basilar artery [9]): 134.0 ± 4.1 n mol/g wt. tissue

Structure (SMILES): CCCCO [n-Butyl alcohol, n-butyl alcohol]
effect on fluidity of platelet membrane (platelets of rabbit): an increase in the fluitidy of platelet membrane
Fluorescence polarization (platelets of rabbit; 21 µM): 7±5
Fluorescence polarization (platelets of rabbit; 42 µM): 6±5
Fluorescence polarization (platelets of rabbit; 62 µM): -14±2
